Measurements: paper PMC7616682 (Journal of biological inorganic chemistry : JBIC : a …, 2024)
≈ marks a conversion by molar mass, not a printed value. Where two headings read alike, the source gives them in different places.

Tests used:
[1] = tested on: Acinetobacter baumanii ATCC 17978; experiment: Rapid screen broth microdilution assay; assay type: cell-based, Acinetobacter baumannii; settings: rapid screen without replicates, 24 h, read-out: MIC A. baumannii (Gram negative)
Protocol: (§1) Antibacterial activity assay
(§2) Rapid screen broth microdilution assay
(§3) 5 × 125 mL Erlenmeyer flasks, each filled with 12.5 mL Mueller Hinton broth II (MHBII), were inoculated with Klebsiella pneumoniae ATCC 13883, Acinetobacter baumanii ATCC 17978, Psuedomonas aeruginosa ATCC BAA-47, Staphylococcus aureus […]
(§4) with 12.5 mL BHI broth was inoculated with Enterococcus faecium ATCC 19434. The cultures were incubated at 37 °C with shaking at 180 rpm for 16 h. The suspensions were diluted 100-fold with the requisite broth (E. faecium: 4-fold) and the resultant suspensions incubated for a further 3 h at 37 °C with shaking. […]
(§5) of 0.8–1.2 after 3 h. Stock solutions of the title compounds were prepared in the requisite broth from 100 mM stocks in DMSO with the exceptions of carbenicillin, which was from a 100 mM stock in water and ciprofloxacin from a 10 mM stock in DMSO.
(§6) 6 × 96 well plates were primed with a concentration gradient of the analytes from 200 to 3.13 µM, carbenicillin from 200 to 3.13 µM and ciprofloxacin from 10 to 0.16 µM. The cells were diluted 100-fold to an OD600 of 0.01. All plates were then inoculated with 50 μL per well bacterial culture in the requisite broth to 100 μL per well. Plates were then incubated at 37 °C for 24 h before reading OD600 on a BMG Clariostar platereader. […]

[2] = tested on: Escherichia coli K12 ATCC 10798; experiment: Rapid screen broth microdilution assay; assay type: cell-based; settings: rapid screen without replicates, 24 h, read-out: MIC E. coli (Gram negative)
Protocol: as §1, §2, §3, §4, §5, §6

[3] = tested on: Klebsiella pneumoniae ATCC 13883; experiment: Rapid screen broth microdilution assay; assay type: cell-based; settings: rapid screen without replicates, 24 h, read-out: MIC K. pnuemoniae (Gram negative)
Protocol: as §1, §2, §3, §4, §5, §6

[4] = tested on: Psuedomonas aeruginosa ATCC BAA-47; experiment: Rapid screen broth microdilution assay; assay type: cell-based, Pseudomonas aeruginosa; settings: rapid screen without replicates, 24 h, read-out: MIC P. aeruginosa (Gram negative)
Protocol: as §1, §2, §3, §4, §5, §6

E. faecium ATCC 19434 = experiment: MIC broth microdilution assay; assay type: cell-based, Enterococcus faecium; settings: three colonies, 24 h; for MIC: read-out: MIC E. faecium (Gram positive)
Protocol: (§7) Antibacterial activity assay […]
(§8) MIC broth microdilution assay
(§9) 3 × 125 mL Erlenmeyer flasks, each filled with 12.5 mL MHBII, were inoculated with three different colonies of S. aureus NTCC 12973. 3 × 125 mL Erlenmeyer flasks, each filled with 12.5 mL BHI broth, were inoculated with three different colonies of E. faecium ATCC 19434. The cultures were incubated at 37 °C with shaking at 180 rpm for 16 h.
(§10) OD600 of ~2.5. The suspensions of S. aureus cultures were diluted 100-fold with MHBII while the E. faecium cultures were diluted 4-fold. The resultant suspensions were incubated for a further 3 h at 37 °C with shaking. […]
(§11) after 3 h. Stock solutions of the title compounds were prepared in the requisite broth from 100 mM stocks in DMSO with the exception of carbenicillin, which was from a 100 mM stock in water and vancomycin from a 10 mM stock in DMSO. 15 × 96 well plates were primed with concentration gradients of the analytes and carbenicillin as shown in Figure S60 for S. aureus. 15 × 96 well plates were primed with the concentration […]
(§12) μL per well of the relevant bacterial culture in the requisite broth to 100 μL per well.

S. aureus NTCC 12973 = experiment: MIC broth microdilution assay; assay type: cell-based, Staphylococcus aureus; settings: 24 h, read-out: MIC S. aureus (Gram positive)
Protocol: as §7, §8, §9, §10, §11, §12
Plates were then incubated at 37 °C for 24 h before reading OD600 on a BMG Clariostar […]
Figure S50: Dose response profiles of the title compounds against S. aureus.
(§13) (1 picture or pasted object on this page, not shown here)

[5] = tested on: BEAS2B (non-cancer lung) cells; experiment: Cell viability (DAPI nuclei count); assay type: cell-based, human; settings: 48 h
Protocol: (§14) To determine the relative viability, after incubation cells were fixed and stained with DAPI and the number of nuclei per well determined using a CeligoTM Image Cytometer (Figure S52 to S60). […] page 43: Cell viability studies Compound cytotoxicity was tested simultaneously on five representative cell lines […] All cells were cultured in DMEM Glutamax without pyruvate with 10% fetal bovine serum and 1% penicillin/streptomycin (Gibco). Cells were incubated with the compound for 24 or 48 h […] The tested concentration range for each compound was […] The required […] Greiner CELLSTAR® microplates) using the Echo 550 Acoustic Liquid Handler and wells were back-filled with DMSO when required to keep a final DMSO concentration […] Next, 50 μL of cell solution was added to the compound-containing wells using the Integra® […] Bulk dispenser. Cell solutions were prepared to get 5000 […] cells per well for hTERT RPE-1, and 5000 (24 h)/2500 (48 h) cells per well for BEAS- […] After incubation, cells were fixed with 4% PFA (Merck, […]), permeabilized with […] DAPI (Merck, 10236276001). Viable cells were counted using 377 nm excitation and 447 nm emission filters on the CeligoTM Image Cytometer. The number of nuclei per well was determined using the Direct Cell Count analysis from the CeligoPro Sofware […] All conditions were performed in triplicate. Staurosporine (Cambridge Bioscience, s7600) was used as a positive control and DMSO only as a negative control. The percentage of cell viability was normalized to the DMSO-only control and […] logistic curve with the scipy.optimize.curve_fit function. S43

[6] = tested on: HCT116 (colorectal cancer) cells; experiment: Cell viability (DAPI nuclei count); assay type: cell-based, human; settings: 48 h
Protocol: as §14

[7] = tested on: HaCat (non-cancer skin) cells; experiment: Cell viability (DAPI nuclei count); assay type: cell-based, human; settings: 48 h
Protocol: as §14

[8] = tested on: HeLa (cervical cancer) cells; experiment: Cell viability (DAPI nuclei count); assay type: cell-based, human; settings: 48 h
Protocol: as §14

[9] = tested on: RPE1 (retinal pigment epithelial cells); experiment: Cell viability (DAPI nuclei count); assay type: cell-based, human; settings: 48 h
Protocol: as §14

[10] = tested on: BEASB2, HaCat, RPE1, HCT116 and HeLa cell lines; experiment: Cell viability, summary over all cell lines studied; assay type: cell-based, human; settings: summary of Table 3, 48 h; for IC50: read-out: IC50 values, range over all cell lines studied
Protocol: as §14

[11] = LogP by shake-flask method (n-octanol/phosphate buffer)
Protocol: using the "shake-flask" method.[6],[7] In short, phosphate buffer (50 mM, pH 7.4) was saturated with n-octanol by shaking a 1:1 mixture of both solution on a laboratory shaker for 72 h, after which the phases were separated. Stock solutions of each complex were then prepared in dimethylsulfoxide at a concentration of 10 mM. […]
(§15) solution with a concentration of 100 µM. From this solution, 1000 µL were transferred into an Eppendorf tube and mixed with 1000 µL of n-octanol. After shaking for 15 min and centrifugation (5 min, 6000 rpm), the two phases were carefully separated, and the contact layer discarded. Then, the absorbance of each phase was recorded with an Agilent 8453 UV/Vis spectrometer.
as §15, with “2 mL solution with” for “solution with”, “1000 µL phosphate buffer. After shaking” for “1000 µL of n-octanol. After shaking”, “rpm), the phases were” for “rpm), the two phases were”

avidin = molecular target: T1, avidin (Gallus gallus, UniProt P02701); experiment: HABA/avidin assay; assay type: binding; settings: titration of HABA/avidin mixture, absorbance at 500 nm
T1 construct: purchased SIGMA-ALDRICH A9275
T1 sequence (P02701 25-152): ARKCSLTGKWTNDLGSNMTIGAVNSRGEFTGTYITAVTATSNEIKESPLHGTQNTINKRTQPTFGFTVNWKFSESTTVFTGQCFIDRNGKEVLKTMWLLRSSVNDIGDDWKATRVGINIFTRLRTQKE
Protocol: properties towards avidin using the HABA assay.[8] A mixture of avidin (6.8 μM, SIGMA-ALDRICH: A9275) and 4'-hydroxyazobenzene-2-carboxylic acid (HABA, 0.3 mM, SIGMA-ALDRICH: H5126) was dissolved in 50 mM sodium phosphate buffer (20 mL, pH 7.4) and allowed to equilibrate for 24 h at 4 °C. Stock solutions of each compound were prepared in dimethyl sulfoxide at a concentration of 1.1 mM. The […]
to the prepared avidin/HABA mixture (1 mL) at room temperature at 5–10 min intervals […]
absorbance then recorded with an Agilent 8453 UV/Vis spectrometer. The formation of the adduct was indicated by a decrease in the absorbance at 500 nm due to the displacement of HABA from the avidin. By plotting -ΔA500 nm vs. the molar concentration ratio c(compound):c(avidin), the binding stoichiometry of the compound to avidin was determined.

streptavidin = streptavidin (Streptomyces avidinii, UniProt P22629); experiment: Isothermal titration calorimetry (ITC) with streptavidin; assay type: binding; settings: 25 °C, 10 mM HEPES + 2% DMSO, read-out: dissociation constant (Kd) to streptavidin
streptavidin, sequence (P22629 25-183, species assumed): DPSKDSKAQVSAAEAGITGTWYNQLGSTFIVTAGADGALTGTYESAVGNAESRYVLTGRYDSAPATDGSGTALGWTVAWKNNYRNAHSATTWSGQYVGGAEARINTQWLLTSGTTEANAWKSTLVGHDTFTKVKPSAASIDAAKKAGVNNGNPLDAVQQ
Protocol: Isothermal titration calorimetry
Streptavidin (20 µM in 10 mM HEPES plus 2% DMSO) was titrated stepwise with 2 uL injections of the compound (200 µM in 10 mM HEPES + 2% DMSO) at 25 °C, using a Malvern MicroCal PEAQ-ITC. Raw thermograms (top panels) and the binding isotherm from the integrated thermogram (bottom panels) were fit using the One Set of Sites model in the MicroCal PEAQ-ITC analysis software. Circles indicate the integrated heat, and the curve represents the best fit.
Figure S46: Isothermal titration calorimetry measurements of 5.
as §13

Compound | MIC [1] [µM] | MIC [2] [µM] | MIC [3] [µM] | MIC [4] [µM] | MIC E. faecium (Gram positive) (E. faecium ATCC 19434) [µM] | MIC (S. aureus NTCC 12973; three colonies) [µM] | IC50 [5] [µM] | IC50 [6] [µM] | IC50 [7] [µM] | IC50 [8] [µM] | IC50 [9] [µM] | IC50 [10] [µM] | LogP ([11]; pH 7.4) | avidin binding in HABA assay (result in words) (avidin) | MIC (E. faecium ATCC 19434) [µM] | also measured
[Au(triazolatoC6H5,biotin)(PPh3)] [Compound 12] | 50 | >200 | >200 | >200 | 0.625 to 2.5 | 1.25 | 2.7 | 7.2 | 6.6 | 3.8 | 3.6 | 2 to 8 | – | – | – | –
O=C(O)c1cn(C2CC2)c2cc(N3CCNCC3)c(F)cc2c1=O [Ciprofloxacin, reference compound] | – | – | – | – | – | – | – | – | – | – | – | – | – | – | – | MIC ([1]; Acinetobacter baumannii, ATCC17978): 0.31 µM (≈ 0.103 µg/mL); MIC ([3]; Klebsiella pneumoniae, ATCC13883): < 0.16 µM; MIC ([4]; Pseudomonas aeruginosa, ATCCBAA47): 100 µM (≈ 33.1 µg/mL)
COC(=O)c1n[n]([Ir+][c]2ccccc2-c2ccccn2)nc1C(=O)OC.F[P-](F)(F)(F)(F)F.c1ccc(-c2cccc(-c3ccccn3)n2)nc1 [Compound 17] | >200 | >200 | >200 | >200 | – | >200 | – | > 50 | > 50 | > 50 | 35 | > 35 | -1.02 | non-specific protein binding | >200 | –
O=C1N[C@H]2[C@H](CS[C@H]2CCCCC(=O)c2n[n]([Pt][c]3c(-c4ccccn4)cccc3-c3ccccn3)nc2-c2ccccc2)N1 [Compound 14, [Pt(triazolatoC6H5,biotin)(dpb)]] | >200 | >200 | >200 | >200 | 5 to 10 | 12.5 | 6.7 | 9.4 | 10.2 | 8.2 | 7.4 | – | – | – | – | LogP ([11]; shake-flask method, n-octanol/phosphate buffer 50 mM pH 7.4): highly lipophilic^a
COC(=O)c1n[n]([Pt][c]2c(-c3ccccn3)cccc2-c2ccccn2)nc1C(=O)OC [Compound 13] | >200 | >200 | >200 | >200 | – | 200 | – | > 50 | > 50 | > 50 | > 50 | – | highly lipophilic^a | non-specific protein binding | >200 | IC50 values, range over all cell lines studied [10]: did not show any biological activity
CC(=O)c1n[n]([Au][PH](c2ccccc2)(c2ccccc2)c2ccccc2)nc1-c1ccccc1 [Compound 11, [Au(triazolatoC6H5,COCH3)(PPh3)]] | 100 | >200 | >200 | >200 | 0.625 to 5 | 2.5 | 2.5 | 5.5 | 6.1 | 3.5 | 2.7 | 2 to 8 | highly lipophilic^a | non-specific protein binding | – | –
CC1(C)S[C@@H]2[C@H](NC(=O)C(C(=O)O)c3ccccc3)C(=O)N2[C@H]1C(=O)O (stereo partly drawn) [Carbenicillin, reference compound] | – | – | – | – | – | – | – | – | – | – | – | – | – | – | – | MIC ([2]; Escherichia coli, ATCC10798): 12.5 µM (≈ 4.73 µg/mL); MIC (S. aureus NTCC 12973; Staphylococcus aureus, NTCC12973, three colonies): 12.5 µM (≈ 4.73 µg/mL)
[Ir(triazolatoC6H5,biotin)(ppy)(terpy]PF6 [Compound 18] | >200 | >200 | >200 | >200 | – | 100 | – | > 50 | > 50 | > 50 | 39.7 | > 35 | – | – | 100 | Kd (streptavidin): 0.045 µM
